Test results taken from PubChem BioAssay (NCI).
Values joined by “and” are separate entries in the source; they are usually repeats but may differ in a detail not shown here. Equal values may be shown once.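 Where inhibition never reached the appropriate level, the endpoint shown equals the highest concentration tested. Otherwise, values were interpolated linearly from a five-concentration, 48-hour dose response in 96-well plates. The concentration for 50% growth inhibition is given as GI50. At the TGI there is no net growth.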

Tests used:
Assay in all cases: NCI tumour cell line growth inhibition, 48 h
DMS 114 small cell lung = system: DMS 114 small cell lung
DMS 273 small cell lung = system: DMS 273 small cell lung
KM20L2 colon = system: KM20L2 colon
LXFL 529 NSCLC = system: LXFL 529 NSCLC
MDA-N = system: MDA-N
RXF-631 renal = system: RXF-631 renal
SNB-78 CNS = system: SNB-78 CNS
XF 498 CNS = system: XF 498 CNS
DLD-1 colon = system: DLD-1 colon
P388/ADR leukemia = system: P388/ADR leukemia

Row | SMILES | TGI (DMS 114 small cell lung) | TGI (DMS 273 small cell lung) [µM] | TGI (KM20L2 colon) | TGI (LXFL 529 NSCLC) [µM] | TGI (MDA-N) | TGI (RXF-631 renal) [µM] | TGI (SNB-78 CNS) [µM] | TGI (XF 498 CNS) [µM] | TGI (DLD-1 colon) | also measured
1 | COc1ccc(/C(Cl)=C(\C=O)c2ccc([N+](=O)[O-])cc2)cc1OC | 22.3 µM | 32 | 25.5 µM | 13.7 | 14.5 µM | 26.9 | 56.5 | 9.59 | – | –
2 | Cc1ccc(-c2nc(SCC(=O)O)n[nH]2)cc1 | > 100 µM | > 100 | > 100 µM | > 100 | – | – | > 100 | > 100 | > 100 µM | –
3 | O=C(O)C1C(C(=O)Nc2ccc3c(c2)Cc2ccccc2-3)C2(Cl)C(Cl)=C(Cl)C1(Cl)C2(Cl)Cl (centres undefined) | – | – | – | – | > 100 µM | – | – | – | – | –
4 | CCCCCC(O)C1C(=O)OC(C)C(O)/C=C/C=C/C=C/C=C\C=C(\C)C(O)CC(O)CC(O)CC(O)CC(O)CC(O)CC1O (centres undefined) | – | – | – | – | > 100 µM | – | – | – | – | GI50 (MDA-N): > 100 µM
5 | Cc1ccc(NC(=O)c2cccc([N+](=O)[O-])c2O)c([N+](=O)[O-])c1 | 25.7 µM | 26.2 | 70.4 µM | 27.9 | – | 26.9 | > 100 | 36.2 | 39.9 µM | –
6 | CCC[CH2][Sn]([CH2]CCC)([O]C(=O)c1cc(F)cc(F)c1)[O]C(=O)c1cc(F)cc(F)c1 | 1.22 µM | 2.5 | 3.44 µM | 0.607 | – | – | 1.66 | 3.28 | 2 µM | GI50 (DLD-1 colon): 0.727 µM; GI50 (DMS 114 small cell lung): 0.307 µM; GI50 (DMS 273 small cell lung): 1.25 µM; GI50 (KM20L2 colon): 1.61 µM; GI50 (LXFL 529 NSCLC): 0.171 µM; GI50 (SNB-78 CNS): 0.404 µM; GI50 (XF 498 CNS): 1.87 µM
7 | COC1(OC)CC2C=C(S(=O)(=O)c3ccccc3)C1N(Cc1ccccc1)C2=O (centres undefined) | 48.3 µM | – | 97.6 µM | 44.9 | – | 88.2 | 75.9 | 48.1 | 96.2 µM | –
8 | NC(=O)C1=NNc2ccccc2C(=O)N1c1ccccc1 | – | – | – | – | > 100 µM | – | – | – | – | –
9 | CCOC(=O)C(=O)Nc1ccc(C)cc1C | > 100 µM | – | – | > 100 | – | – | > 100 | – | > 100 µM | –
10 | CSC(C1c2ccccc2N(C)C2=NC(=O)N(C)C(=O)C21Cl)S(=O)(=O)c1ccc(C)cc1 (centres undefined) | > 100 µM | 75 | > 100 µM | 57.7 | – | > 100 | > 100 | > 100 | > 100 µM | –
11 | COc1cc2c(cc1OC)-c1cc3cc(OC)c(OC)cc3n1CC2 | > 100 µM | – | > 100 µM | > 100 | – | – | > 100 | 59.7 | > 100 µM | –
12 | Cn1c2c(c3ccccc31)C1CCCCC1C1C(=O)NC(=O)C21 (centres undefined) | > 100 µM | – | – | > 100 | – | > 100 | > 100 | > 100 | > 100 µM | –
13 | COc1ccc(/C(=N/NC(=O)NN)C(c2ccc(OC)cc2)C2(O)CNc3c(Cl)cc(Cl)cc32)cc1 (centres undefined) | > 100 µM | – | > 100 µM | > 100 | – | > 100 | > 100 | – | > 100 µM | –
14 | Brc1ccc(-c2nnc(-c3nn(-c4ccccc4)c4nc5ccccc5nc34)o2)cc1 | > 100 µM | > 100 | > 100 µM | > 100 | – | > 100 | > 100 | – | > 100 µM | –
15 | CC(=O)OC1CC(n2cc(F)c(=O)[nH]c2=O)OC1CO (centres undefined) | > 100 µM | > 47 | > 100 µM | 16.4 | > 100 µM | – | > 100 | 83.8 | > 100 µM | –
16 | CC(C)C1OC(=O)C=C1Sc1ccccc1 (centres undefined) | – | – | – | – | > 100 µM | – | – | – | – | –
17 | COc1ccc(/C=C2\CCCCC2=O)cc1 | > 100 µM | > 100 | > 100 µM | > 100 | – | – | > 100 | > 100 | > 100 µM | –
18 | O=S(O)CCCCCSSCCCCSSCCCCCS(=O)O | > 100 µM | > 100 | > 100 µM | > 100 | – | > 100 | > 100 | > 100 | > 100 µM | –
19 | CC1C[C@H](OC(N)=O)C(C)CC1=O (some centres undefined) | > 100 µM | > 100 | > 100 µM | > 100 | – | – | > 100 | > 100 | > 100 µM | –
20 | CCNCC(=O)O[C@]1(CC)C(=O)OCc2c1cc1n(c2=O)Cc2cc3ccccc3nc2-1 | 2.53 µM | 0.328 | > 100 µM | 42.6 | 6.95 µM | – | > 100 | 1.56 | > 100 µM | –
21 | CN(C)c1ccc(N=Cc2c([O-])ccc3ccccc23)cc1.[C-]#[O+].[C-]#[O+].[Ir] | 22.8 µM | – | 33.4 µM | 25.9 | – | – | – | 48.4 | 37.6 µM | GI50 (DLD-1 colon): 17.4 µM; GI50 (DMS 114 small cell lung): 10.5 µM; GI50 (KM20L2 colon): 18.7 µM; GI50 (LXFL 529 NSCLC): 12.5 µM; GI50 (XF 498 CNS): 20.5 µM
22 | COC1=CC(O)(CC(N)=O)c2ccccc2C1=O (centres undefined) | > 100 µM | > 100 | > 100 µM | > 100 | – | > 100 | > 100 | > 100 | > 100 µM | –

Row | SMILES | TGI (DMS 114 small cell lung) | TGI (DMS 273 small cell lung) [µM] | TGI (KM20L2 colon) | TGI (LXFL 529 NSCLC) [µM] | TGI (MDA-N) | TGI (RXF-631 renal) [µM] | TGI (SNB-78 CNS) [µM] | TGI (XF 498 CNS) [µM] | TGI (DLD-1 colon) | also measured
23 | NS(=O)(=O)c1cc2c(cc1Cl)NC(Cc1ccccc1)NS2(=O)=O (centres undefined) | – | – | – | – | > 100 µM | – | – | – | – | –
24 | C/C(=N\NC(=O)c1ccncc1)c1ccc2ccccc2c1O | – | – | – | – | > 100 µM | – | – | – | – | –
25 | CC(=O)C1CC=C(C)CC1 (centres undefined) | > 100 µM | > 100 | > 100 µM | > 100 | – | > 100 | > 100 | > 100 | > 100 µM | –
26 | CC[C@H]1CN2CCc3cc(OC)c(OC)cc3[C@@H]2C[C@@H]1C[C@H]1NCCc2cc(O)c(OC)cc21 | 0.0247 µM and 0.0373 µM | – | 0.0302 µM and 0.136 µM | – | 0.0354 µM and 0.141 µM | – | – | 0.0388 | 0.0454 µM and 0.356 µM | GI50 (LXFL 529 NSCLC): 0.0118 µM; GI50 (MDA-N): 0.0127 µM; GI50 (P388/ADR leukemia): 0.0609 µM; TGI (P388/ADR leukemia): 29.6 µM; GI50 (SNB-78 CNS): 0.0266 µM and 0.0502 µM; GI50 (XF 498 CNS): 0.025 µM
27 | Cc1ccc(NC(=O)NC(=O)c2ccc([N+](=O)[O-])cc2[N+](=O)[O-])cc1Oc1ncc(Cl)cn1 | 10.1 µM | 1.08 | 0.515 µM | 11.1 | – | – | 26.5 | 16.9 | 12.5 µM | –
28 | CC/C=C1\N=C(c2ccc(Cl)cc2)OC1=O | > 100 µM | > 100 | > 100 µM | > 100 | – | – | > 100 | > 100 | > 100 µM | –
29 | C1CCN(CCC2CCCCN2)CC1 (centres undefined) | – | – | – | – | > 100 µM | – | – | – | – | –
30 | CCn1cc(/C=C/C(C)c2cn(CC)c(=O)[nH]c2=O)c(=O)[nH]c1=O (centres undefined) | > 100 µM | > 100 | > 100 µM | > 100 | – | > 100 | – | – | > 100 µM | –
31 | COc1ccc2oc3c4c2c1CCC4CCC3=O (centres undefined) | > 100 µM | > 100 | – | > 100 | – | > 100 | > 100 | > 100 | – | –
32 | CC1=CC(=O)CCC2(C)C1CC[C@@H]2OC=O (some centres undefined) | > 100 µM | > 100 | > 100 µM | > 100 | – | > 100 | > 100 | > 100 | > 100 µM | –
33 | O=P(O)(O)c1ccccc1 (tested in a mixture with another compound) | – | – | – | – | > 100 µM | – | – | – | – | –
34 | O=C(CC1(O)C(=O)Nc2ccccc21)c1ccccc1Cl (centres undefined) | > 100 µM | > 100 | > 100 µM | > 100 | – | – | > 100 | > 100 | > 100 µM | –
35 | CC(C)c1ccccc1NC(=O)C(=O)Cc1nc2ccccc2s1 | > 100 µM | > 100 | > 100 µM | > 100 | – | > 100 | > 100 | – | – | –
36 | CCOC(=O)N1CCc2cc(OC)c(OC)c3c2C1CC3=O (centres undefined) | > 100 µM | > 100 | > 100 µM | > 100 | – | – | > 100 | – | > 100 µM | –
37 | CCn1c2c(n(CC)c1=S)-c1c(n(CC)c(=S)n1CC)SSSS2 | 38.1 µM | 33.1 | 29.5 µM | 5.97 | – | 24.4 | 28.1 | 4.08 | 5.73 µM | –
38 | O=C(CO)CC(=O)C(=O)Nc1nc([N+](=O)[O-])cs1 | > 100 µM | > 100 | > 100 µM | > 100 | – | > 100 | > 100 | – | > 100 µM | –
39 | CCSCC(N)C(=O)O (centres undefined) | – | – | – | – | > 100 µM | – | – | – | – | –
40 | CSc1cnn(CCC#N)c(=O)n1 | – | – | – | – | > 100 µM | – | – | – | – | –
41 | N#CC(C(=O)/C(=N\Nc1nc(=S)[nH]n1N)C(C#N)c1ccc(Cl)cc1)c1ccc(Cl)cc1 (centres undefined) | > 100 µM | > 100 | > 100 µM | > 100 | – | – | > 100 | > 100 | > 100 µM | –
42 | CC(C)(C)NN=C1C(C)(C)C(=NNC(C)(C)C)C1(C)C | > 100 µM | > 100 | > 100 µM | > 100 | – | – | > 100 | > 100 | > 100 µM | –
43 | CN(C)c1ccc(/C=C(/NC(=O)c2ccccc2)c2nc3ccc(Cl)cc3[nH]2)cc1 | – | > 100 | 84.8 µM | 97.4 | – | – | > 100 | – | > 100 µM | –
